{"source": "patent US10471127B2", "about": "“Peptide pharmaceuticals for insulin resistance” (Mederis Diabetes, LLC, priority 2011, dated 2019)", "note": "pEC50: −log10 of the molar value.", "data": [{"test_system": "not given", "experiment": "not given", "conditions": "in water; cited from earlier work", "units": {"CMC": "mM"}, "values": [{"compound": "CCCCCCCCCCCCO[C@@H]1O[C@H](CO)[C@@H](O[C@H]2O[C@H](CO)[C@@H](O)[C@H](O)[C@H]2O)[C@H](O)[C@H]1O", "note": "[Dodecyl-β-D-maltoside]", "CMC": 0.17}, {"compound": "CCCCCCCCCCO[C@@H]1O[C@H](CO)[C@@H](O[C@H]2O[C@H](CO)[C@@H](O)[C@H](O)[C@H]2O)[C@H](O)[C@H]1O", "note": "[Decyl maltoside]", "CMC": 1.8}, {"compound": "CCCCCCCCCCCCCO[C@@H]1O[C@H](CO)[C@@H](OC2OC(CO)C(O)C(O)C2O)[C@H](O)[C@H]1O", "note": "(stereo in doubt) [Tridecyl maltoside]", "CMC": 0.03}, {"compound": "Sucrose dodecanoate", "CMC": 0.3}, {"compound": "CCCCCCCCCCCCCCO[C@@H]1O[C@H](CO)[C@@H](O[C@@H]2O[C@@H](CO)[C@H](O)[C@@H](O)[C@@H]2O)[C@H](O)[C@H]1O", "note": "(stereo in doubt) [Tetradecyl maltoside]", "CMC": 0.01}, {"compound": "CCCCCCCCO[C@@H]1O[C@H](CO)[C@@H](O[C@H]2O[C@H](CO)[C@@H](O)[C@H](O)[C@H]2O)[C@H](O)[C@H]1O", "note": "[Octyl maltoside]", "CMC": 19.5}]}, {"biological_target": "T1, glucagon R (Homo sapiens, UniProt P47871)", "T1 construct": "Cerep SA", "T1 sequence (P47871 26-477)": "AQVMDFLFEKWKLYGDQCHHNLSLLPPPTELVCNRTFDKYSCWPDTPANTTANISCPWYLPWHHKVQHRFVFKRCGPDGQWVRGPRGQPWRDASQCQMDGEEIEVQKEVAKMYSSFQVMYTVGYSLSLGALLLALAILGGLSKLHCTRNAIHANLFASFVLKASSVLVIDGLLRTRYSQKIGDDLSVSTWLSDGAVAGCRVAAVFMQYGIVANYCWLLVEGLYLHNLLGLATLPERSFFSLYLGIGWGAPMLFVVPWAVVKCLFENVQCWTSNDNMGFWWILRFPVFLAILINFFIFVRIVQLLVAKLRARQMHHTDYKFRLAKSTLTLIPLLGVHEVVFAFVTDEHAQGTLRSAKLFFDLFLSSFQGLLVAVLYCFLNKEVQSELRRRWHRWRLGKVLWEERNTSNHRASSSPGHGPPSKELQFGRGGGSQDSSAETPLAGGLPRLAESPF", "experiment": "glucagon cellular assay, stimulation of cAMP levels (Cerep SA)", "type": "cell-based", "conditions": "cAMP generated in cells; n.c. means EC50 not calculable", "procedure": "Compounds were weighed precisely in an amount of approximately 1 mg and assayed in standard cellular assays (Cerep SA). The readout is the amount of cAMP generated in the cells treated with the test compounds, in either agonist or antagonist mode.", "values": [{"compound": "CCCCCCCCCCCCO[C@@H]1O[C@H](C(=O)NCCCC[C@H](NC(=O)[C@@H]2CCCCNC(=O)CC[C@H](NC(=O)[C@H](CC(=O)O)NC(=O)[C@H](CC(C)C)NC(=O)[C@H](Cc3ccc(O)cc3)NC(=O)[C@H](CCCCN)NC(=O)[C@H](CO)NC(=O)[C@H](Cc3ccc(O)cc3)NC(=O)[C@H](CC(=O)O)NC(=O)[C@H](CO)NC(=O)[C@@H](NC(=O)[C@H](Cc3ccccc3)NC(=O)[C@@H](NC(=O)CNC(=O)[C@H](CCC(N)=O)NC(=O)C(C)(C)NC(=O)[C@@H](N)Cc3c[nH]cn3)[C@@H](C)O)[C@@H](C)O)C(=O)N[C@@H](CCCNC(=N)N)C(=O)N[C@@H](C)C(=O)N[C@@H](C)C(=O)N2)C(=O)N[C@@H](Cc2ccccc2)C(=O)NC(C)(C)C(N)=O)[C@@H](O)[C@H](O)[C@H]1O", "note": "[EU-A455]", "pEC50": 6.11}]}]}
